Patent US20170252469A9, “Method for predicting autism spectrum disorders by cannabinoid and cannabinoid receptor expression” (The United of America as represented by the Secretary of …, priority 2011, published 2017)
“Also recorded” adds a separate entry of the source.

How the values were obtained:
[1] = system: BTBR mice; assay: 2-AG levels after injections in early postnatal development; type: in vivo, mouse; conditions: 100 mg/kg i.p. injections from 18-21 days postnatal, 59 days, FIG. 6
Method: (§1) The mice were then tested for marble burying and evaluated for neurochemical measures.

[2] = system: 129S1/SvImJ mice; assay: three-chamber social approach test in 129S1/SvImJ mice; type: in vivo, mouse; conditions: 129S
Excerpt: (§2) BTBR T+tf/J, 129S1/SvImJ and C57BL/6 mouse colony founders were originally obtained from the Jackson Laboratory (Bar Harbor, Me., USA). These strains were bred in the animal facilities of the University of Texas Health Science Center at San Antonio through 2 generations. After weaning at 23-25 days of age, male littermates were housed in groups of 4-5 per cage until behavioral testing at 3-4 months of age. Mice had ad libitum access to food (Teklad™ rodent diet, Harlan, Indianapolis, Ind., USA) and water in ventilated clear plastic cages lined with chipped wood bedding.
(§3) The cannabinoid agonist WIN55,212-2 (Ascent Scientific, Princeton, N.J., USA) was dissolved initially in dimethyl-sulfoxide (DMSO Sigma) and was diluted with saline (1:10) to administer 0.1 mg/kg i.p. in 10% DMSO to mice. […] Injections were given 30 minutes prior to introduction to the testing arena for conditioning, and 50 min prior to behavior testing.
The three-chamber sociability testing procedure for mice is described in detail in Yang et al. Curr. Protoc. Neurosci., Chapter 8: Unit 8. 26 (2011), our study was conducted in a manner consistent with that protocol. Mice were introduced into the center chamber of an acrylic three-chamber sociability arena, measuring 30×22×61 cm with a light tan bottom, black side walls and two transparent interior walls with slat door openings of 10 cm^2 […] dividing the arena into 3 chambers, for 20 min prior to behavioral testing. As described in Gould et al. J. Neurochem., 116: 291-303 (2011), pre-conditioning was performed under low red light (16 lux) at first for 10 min with the mouse confined in the center chamber, then with the doors opened so the subject could explore the entire arena for 10 min longer. […] Digital video cameras (Hewlett-Packard Photosmart™ R742, Palo Alto, Calif., USA) positioned on top of tripods overseeing the arenas were turned on, the doors were removed and social approach behavior was recorded for 10 min under low red light.

[3] = system: BTBR mice; assay: three-chamber social novelty test in BTBR mice; type: in vivo, mouse; conditions: WIN 55,212-2 0.1 mg/kg i.p.; for time in the chamber with the novel stranger / chamber entries: acetaminophen 100 mg/kg; for time in the chamber with the novel stranger: vs controls; for chamber entries: social novelty test, BTBR
Method: as §3
(§4) The social approach test ended with confinement of the subject into the center chamber and closing of the slat doors. A new stranger mouse was then placed under the empty cup cage, the doors were opened, and behavior was recorded for another 10 min under low red light to assess preference for social novelty. At the end of the test, stranger mice were returned to their home cages for use in subsequent tests, and subject mice were removed from the arena and placed in a marble burying test. The number of boli in the center of the arena was counted prior to cleaning the arena with a solution of 70% EtOH and paper towels prior to conditioning and testing the next animal. Digital videos were analyzed for box entries, time in box and social sniffing time by observers blind to mouse strain or drug treatments.

[4] = system: BTBR mice; assay: three-chamber social approach test in BTBR mice; type: in vivo, mouse
Excerpt: as §2, §3
The three-chamber sociability testing procedure for mice is described in detail in Yang et al. Curr. Protoc. Neurosci., Chapter 8: Unit 8. 26 (2011), our study was conducted in a manner consistent with that protocol. Mice were introduced into the center chamber of an acrylic three-chamber sociability arena, measuring 30×22×61 cm with a light tan bottom, black side walls and two transparent interior walls with slat door openings of 10 cm^2 […] dividing the arena into 3 chambers, for 20 min prior to behavioral testing. As described in Gould et al. J. Neurochem., 116: 291-303 (2011), pre-conditioning was performed under low red light (16 lux) at first for 10 min with the mouse confined in the center chamber, then with the doors opened so the subject could explore the entire arena for 10 min longer. Just prior to testing, subjects were briefly confined in the center chamber while an empty wire cup cage was placed at one end of the arena, and a stranger mouse of the same strain was placed under an identical cup cage at the opposite end. Stranger mice were neither litter- nor cage-mates of the subjects and were housed in a separate ventilated cage rack. Stranger mice were pre-conditioned under cup cages in 3 sessions of 30 min each in the day(s) prior to testing, separated by 1 hour reprises in their home cages. Cup cages were topped with weighted jars (9 cm high×7 cm diameter) to prevent mice from climbing on top of them. Digital video cameras (Hewlett-Packard Photosmart™ R742, Palo Alto, Calif., USA) positioned on top of tripods overseeing the arenas were turned on, the doors were removed and social approach behavior was recorded for 10 min under low red light.

[5] = system: BTBR and C57BL/6 mice; assay: marble burying after injections in early postnatal development; type: in vivo, mouse; conditions: 100 mg/kg i.p. injections from 18-21 days postnatal, 59 days, FIG. 5
Method: as §1

[6] = system: mice; conditions: administration of anandamide or high doses of acetaminophen; Umathe et al. 2009; cited from earlier work
[7] = system: 129S1/SvImJ mice; assay: marble burying test in 129S1/SvImJ mice, acute treatment; type: in vivo, mouse; conditions: 129S, acetaminophen 100 mg/kg i.p., FIG. 3d
Method: as §3

[8] = system: 129S1/SvImJ mice; assay: three-chamber social novelty test in 129S1/SvImJ mice; type: in vivo, mouse; conditions: 129S, FIG. 3c; for time in the arena chamber with a new stranger mouse: acetaminophen 100 mg/kg i.p.
Method: as §3, §4

[9] = system: 5-HT receptors; conditions: literature; cited from earlier work
[10] = system: 5-HT neurons; conditions: literature; cited from earlier work
[11] = system: BTBR mice; assay: marble burying test in BTBR mice, acute treatment; type: in vivo, mouse; conditions: 30 min, FIG. 2d
Method: as §3

With CC(=O)Nc1ccc(O)cc1 [acetaminophen] the 2-AG levels [1] was “significant affect on 2-AG levels; also recorded: diminution of 2-AG levels”, the “time spent sniffing the stranger mouse or investigating the empty cage” value ([2]; FIG. 3b) was “trend toward acetaminophen-treated 129S mice spending more time investigating strangers that did not reach significance” and the chamber entries ([2]; acetaminophen 100 mg/kg, WIN 55,212-2 0.1 mg/kg i.p.) was 21±5. The “time in the chamber with the novel stranger” value ([3]; FIG. 2c) was “reduced time spent in the chamber of the arena with a novel stranger; also recorded: spent less time in the box with the novel stranger than controls”, the chamber entries [3] was 50±7 and the “dwelling near confined stranger mice” value ([4]; 100 mg/kg i.p. 50 min prior to testing, adult male BTBR, FIG. 1) was “increased dwelling near confined stranger mice”. The “dwelling near confined stranger mice” value ([4]; 400 mg/kg i.p. 50 min prior to testing, adult male BTBR, FIG. 1) was “increased dwelling near confined stranger mice”, the “time in the chamber with the empty cage” value ([4]; acetaminophen 100 mg/kg i.p., vs vehicle controls or WIN 55,212-2 0.1 mg/kg) was “less time in the chamber with the empty cage” and the “time in the chamber with the stranger mouse” value ([4]; acetaminophen 100 mg/kg i.p., vs vehicle controls or WIN 55,212-2 0.1 mg/kg, FIG. 2a) was “increased dwelling near stranger mice; also recorded: spent more time in the chamber with the stranger mouse”. The “lowest dose to significantly increase time spent in the chamber with a stranger mouse above saline-injected controls” value ([4]; adult male BTBR, dose-response 1-400 mg/kg i.p., FIG. 1) was 100 mg/kg, the marble burying behavior [5] was “induced significant marble burying behavior” and the social interactions [6] was “promote social interactions in mice”. For the same molecule, the marble burying [7] was “greater than in vehicle-control or WIN 55,212-2 treated 129S mice”, the marble burying ([7]; listed as Acetaminophen) was “increased marble burying behavior relative to control or WIN 55,212 treatments” and the “time in the arena chamber with a new stranger mouse” value [8] was “spent significantly more time than controls in the arena chamber with a new stranger mouse”. For the same molecule, the “time in the arena chamber with a new stranger mouse” value ([8]; listed as Acetaminophen) was “increased dwelling near new strangers relative to controls” and the “affinity for 5-HT receptors” value [9] was “little to no affinity for 5-HT receptors”.

For CCCCC/C=C\C/C=C\C/C=C\C/C=C\CCCC(=O)NCCO [anandamide, N-arachidonoylethanolamine], the social interactions [6] is listed as “promote social interactions in mice”.

For Cc1c(C(=O)c2cccc3ccccc23)c2cccc3c2n1[C@H](CN1CCOCC1)CO3 [WIN 55,212-2], the “presynaptic 5-HT release in brain” value [10] is given as “inhibit presynaptic 5-HT release in brain”, the “time in the center chamber” value ([2]; WIN 55,212-2 0.1 mg/kg i.p.) is given as “increased time spent by 129S mice in the arena center; also recorded: spent more time than acetaminophen (100 mg/kg) or vehicle (saline±10% DMSO) treated mice in the center chamber” and the “time in the arena center” value ([3]; social novelty, FIG. 2c) is given as “reduced dwelling in the arena center; also recorded: spent less time than the other groups in the arena center”. The “time in the chamber with the novel stranger” value ([3]; FIG. 2c) was “reduced time spent in the chamber of the arena with a novel stranger; also recorded: spent less time in the box with the novel stranger than controls”, the chamber entries [3] was 19±3 and the “time in the arena center” value ([4]; WIN 55,212-2 0.1 mg/kg i.p., social approach, FIG. 2a) was “increased lingering in the arena center”. The marbles buried [11] was “trend toward WIN 55212 treated mice burying fewer than controls” and the “dwelling in the center chamber” value ([8]; WIN 55,212-2 0.1 mg/kg i.p.) was “increased dwelling in the center chamber of the arena”.
